Test results from US4115453A (Miles Laboratories, Inc., priority 1977, dated 1978).

Key:
[1] = system: blood pressure; assay: Test D: Decrease in Normal Feline Blood Pressure and Heart Rate (anesthetized cat); type: in vivo; conditions: intravenous, 0.01 to 10.0 mcg/kg, judged only on hypotension
Method: The acute effects of test compounds on blood pressure and heart rate were determined in cats of either sex anesthetized with a mixture of pentobarbital sodium (35 mg/kg, i.v.) and barbital sodium (100 mg/kg, i.v.). Cannulas were placed in the trachea to allow adequate spontaneous ventilation, in a femoral artery for blood pressure recording with a strain gage transducer, and in a saphenous vein for drug administration. Heart rate was recorded by means of a cardiotachometer driven by the R wave of the electrocardiogram. After a period of 10 minutes of stable recordings of blood pressure and heart rate, the test compound was administered intravenously at doses increasing from 0.01 to 10.0 mcg/kg, spaced one log and injected at 10 minutes intervals. All doses were injected in a volume of 0.1 ml/kg. Modifications of blood pressure and heart rate induced by the test compound were expressed both in absolute units (mmHg and beats/minutes) and as percent of values recorded immediately before administration of each dose. Biphasic responses were tabulated in the order in which they occur. The direction of the observed changes was also noted (+ for increases and - for decreases).
Activity of compounds in this test was judged only on the basis of the degree of hypotension observed. Thus, the ED50 mmHg (dose decreasing blood pressure by 50 mmHg) was calculated graphically and the compound scored according to the following scale: […]

[2] = system: femoral blood flow; assay: Test C: Increase in Canidae Femoral Blood Flow; type: in vivo; conditions: anesthetized dog, intraarterial, 0.001 to 10 mcg
Method: The peripheral vasodilator or constrictor effects of test compounds were determined in mongrel dogs of either sex, weighing between 10 and 20 kg anesthestized intravenously with 35 mg/kg of sodium pentobarbital. An external iliac artery was dissected immediately above the femoral arch for a length of approximately 5 cm and a previously calibrated, non-connulating electromagnetic flowmeter sensor with a lumen between 2.5 and 3.5 mm was placed snugly around the vessel. Cannulas were placed in a branch of the artery arising distally to the location of the flowmeter sensor for intraarterial drug administrations, in the contralateral femoral artery for systemic blood pressure recordings and in the trachea for artificial respiration with room air. Femoral blood flow and systemic blood pressure were continuously recorded with an electromagnetic flowmeter and pressure tranducer, respectively.
After an adequate control period, test compounds were injected intraarterially at one log-spaced doses ranging from 0.001 to 10 mcg., in a volume of 0.5 ml and at 5 to 10 minute intervals. Maximum changes in bloodflow, as well as any variations in blood pressure, were tabulated for each dose in absolute values (ml/min. and mmHg). The calculations were made taking as control values those existing immediately before administration of each dose. The direction of the observed change (plus for increase and minus for decrease) was also noted. The dose changing bloodflow by 100 ml/min (ED100 ml/min) was calculated graphically and was used for scoring activity as follows: […]

[3] = system: gastric secretion; assay: Test B: Inhibition of Rodent Gastric Secretion (pylorus-ligated rat); type: in vivo; conditions: subcutaneous, 2 x 1.5 mg/kg (total 3.0 mg/kg), 4 hours after pyloric ligation
Method: A procedure based on that described by Lipmann (J. Pharm. Pharmacol., 21:335 [ 1968]) was used to assess the influence of test compounds on gastric secretion. Rats of one sex weighing 150 to 200 g were randomly divided into groups of six animals each and fasted for 48 hours previously to the experiments, water being available adlibitum. The animals were anesthetized with ether, the abdomen was opened through a midline incision and the pylorus was ligated. Test compounds were diluted from stock solution so as to administer a dose of 1.5 mg/kg in a volume equivalent to 1 ml/kg. Subcutaneous injections were applied immediately after surgery and again 2 hours later, so that a total dose of 3.0 mg/kg was administered. Dilutions were made with phosphate buffer (pH 7.38) as recommended by Lee et al. (Prostaglandins 3:29 [ 1973]), in order to insure adequate stability of drugs at the subcutaneous depot. Each compound was tested in one group of rats; an additional control group received only the vehicle.
Four hours after pyloric ligation the animals were killed with ether, the cardias ligated and the stomachs removed. The volume of gastric secretion was measured and the contents centrifuged at 5000 rpm for 10 minutes. Total acid in the supernatant was titrated against a 0.1 N sodium hydroxide solution and the amount expressed in mEq.
Volume and total acid values of the treated group were compared with those of the controls by the "T" test. Antisecretory activity was scored according to the following scale: […]

[4] = system: human platelet aggregation; assay: Test A: Inhibition of Human Platelet Aggregation; type: cell-based; conditions: human platelet rich plasma, in vitro, collagen-induced, 37° C, 15 minutes
Method: The ability of test compounds to inhibit platelet aggreagation was determined by a modification of the turbidometric technique of Born (Nature, 194: 927 [1962]). Blood was collected from human volunteer who had not ingested aspirin or aspirin-containing products within the preceding two weeks in heparinized containers and was allowed to settle for one (1) hour. The platelet rich plasma (prp) supernates were collected and cooled. Siliconized glassware was used throughout.
In a representative assay 1.9 ml of PRP and 0.2 ml of test compound at the appropriate concentrations (0.001 to 100 mcgm), or 0.2 ml of distilled water (control procedure) were placed in sample cuvettes. The cuvettes were placed in a 37° C incubation block for 15 minutes, and then in a spectrophotometer linked to a strip chart recorder. After 30-60 seconds, 0.2 ml of a solution, prepared by diluting a calf-skin collagen solution 1:9 with Tyrodes' Solution, was added to each cuvette. Platelet aggregation was evidenced by a decrease in optical density.
An ED50 value was then determined graphically.

COC(=O)CCCCCC[C@H]1C(=O)C[C@@H](O)[C@@H]1/C=C/[C@@H](O)CCCCC1CCC2CCC1C2 (stereo partly drawn) [TR-4117, methyl 7-{3R-hydroxy-5-oxo-2R-[3S-hydoxy-7-(bicyclo[3.2.1]oct-2-yl)-1E-heptenyl]cyclopent-1R-yl}heptanoate]
Activity Value Test D (ED50 mmHg, dose decreasing blood pressure by 50 mmHg) [1]: 0 (>10.0) | Activity Value Test C (ED100 ml/min, dose changing bloodflow by 100 ml/min) [2]: 0 (>10.0) | Activity Value Test B (% decrease in acidity) [3]: 0 (<26) | Activity Value Test A (ED50, inhibition of platelet aggregation) [4]: 1 (>1.0)

COC(=O)CCCCCC[C@H]1C(=O)C[C@@H](O)[C@@H]1/C=C/[C@H](O)CCCCC1CCC2CCC1C2 (stereo partly drawn) [TR-4116, methyl 7-{3R-hydroxy-5-oxo-2R-[3R-hydroxy-7-(bicyclo[3.2.1]oct-2-yl)-1E-heptenyl]cyclopent-1R-yl}heptanoate]
Activity Value Test D (ED50 mmHg, dose decreasing blood pressure by 50 mmHg) [1]: 0 (>10.0) | Activity Value Test C (ED100 ml/min, dose changing bloodflow by 100 ml/min) [2]: 0 (>10.0) | Activity Value Test B (% decrease in acidity) [3]: 0 (<26) | Activity Value Test A (ED50, inhibition of platelet aggregation) [4]: 1 (>1.0)

O=C(O)CCCCCC[C@H]1C(=O)CC[C@@H]1/C=C/[C@H](O)C1CC2CCC2C1 (mixture of isomers) [TR-4096, dl-7-{5-oxo-2R[3R-hydroxy-3-(bicyclo[3.2.0]hept-3-yl)-1E-propenyl[cyclopent-1R-yl}heptanoic acid]
Activity Value Test D (ED50 mmHg, dose decreasing blood pressure by 50 mmHg) [1]: 0 (>10.0) | Activity Value Test C (ED100 ml/min, dose changing bloodflow by 100 ml/min) [2]: 2 (0.11 - 1.0) | Activity Value Test B (% decrease in acidity) [3]: 0 (<26) | Activity Value Test A (ED50, inhibition of platelet aggregation) [4]: 1 (>1.0)

dl-7-{5-oxo-2R[3R-hydroxy-2-(bicyclo[3.2.0]hept-3-yl)-1E-propenyl]cyclopent- [TR-4101]
Activity Value Test D (ED50 mmHg, dose decreasing blood pressure by 50 mmHg) [1]: 1 (1.01 - 10.0) | Activity Value Test C (ED100 ml/min, dose changing bloodflow by 100 ml/min) [2]: 3 (0.01 - 0.1) | Activity Value Test B (% decrease in acidity) [3]: 1 (26-50, not significant) | Activity Value Test A (ED50, inhibition of platelet aggregation) [4]: 1 (>1.0)

COC(=O)CCCCCC[C@H]1C(=O)C[C@@H](O)[C@@H]1/C=C/[C@H](O)CCCCC1CCCC2CCCCC21 (stereo partly shown) [TR-4166]
Activity Value Test D (ED50 mmHg, dose decreasing blood pressure by 50 mmHg) [1]: 0 (>10.0) | Activity Value Test C (ED100 ml/min, dose changing bloodflow by 100 ml/min) [2]: 0 (>10.0) | Activity Value Test B (% decrease in acidity) [3]: 0 (<26) | Activity Value Test A (ED50, inhibition of platelet aggregation) [4]: 1 (>1.0)

O=C(O)CCCCCC[C@H]1C(=O)CC[C@@H]1/C=C/[C@@H](O)C1CC2CCC2C1 (mixture of isomers) [TR-4097, dl-7-{5-oxo-2R-[3S-hydroxy-3-(bicyclo[3.2.0]hept-3-yl)-1E-propenyl]cyclopent-1R-yl}heptanoic acid]
Activity Value Test D (ED50 mmHg, dose decreasing blood pressure by 50 mmHg) [1]: 0 (>10.0) | Activity Value Test C (ED100 ml/min, dose changing bloodflow by 100 ml/min) [2]: 1 (1.01 - 10.0) | Activity Value Test B (% decrease in acidity) [3]: 2 (26-50, significant) | Activity Value Test A (ED50, inhibition of platelet aggregation) [4]: 1 (>1.0)

O=C(O)CCC/C=C\C[C@H]1C(=O)CC[C@@H]1/C=C/[C@@H](O)C1CC2CCC2C1 (mixture of isomers) [TR-4102, dl-7-{5-oxo-2R-[8 3S-hydroxy-3-(bicyclo[3.2.0]hept-3-yl)-1E-propenyl]cyclopent-1R-yl}hept-5Z-enoic acid]
Activity Value Test D (ED50 mmHg, dose decreasing blood pressure by 50 mmHg) [1]: 0 (>10.0) | Activity Value Test C (ED100 ml/min, dose changing bloodflow by 100 ml/min) [2]: 2 (0.11 - 1.0) | Activity Value Test B (% decrease in acidity) [3]: 4 (76-100) | Activity Value Test A (ED50, inhibition of platelet aggregation) [4]: 1 (>1.0)

COC(=O)CCCCCC[C@H]1C(=O)C[C@@H](O)[C@@H]1/C=C/[C@H](O)C1CC2CCC2C1 (stereo partly drawn) [TR-4098, methyl 7-{3R-hydroxy-5-oxo-2R-[3R-hydroxy-3-(bicyclo[3.2.0]hept-3-yl)-1E-propenyl]cyclopent-1R-yl]heptanoate]
Activity Value Test D (ED50 mmHg, dose decreasing blood pressure by 50 mmHg) [1]: 2 (0.11 - 1.0) | Activity Value Test C (ED100 ml/min, dose changing bloodflow by 100 ml/min) [2]: 2 (0.11 - 1.0) | Activity Value Test B (% decrease in acidity) [3]: 4 (76-100)
